Here are results for 2 compounds from paper PMC9774946, “Trans-(±)-Kusunokinin Binding to AKR1B1 Inhibits Oxidative Stress and Proteins Involved in Migration in Aggressive Breast Cancer” (Antioxidants, 2022).

Usually IC50 stands for the concentration at which inhibition is half-maximal. A higher IC50 goes with lower potency.

Assay [1] has as its target T1, AKR1B1 (aldose reductase) (Homo sapiens, UniProt P15121). Put plainly: aldose reductase inhibitor screening kit (NADPH consumption at […] nm); supported by CETSA in Hs578T and SKOV3 cells. The assay is classed as biochemical.
In assay [2] the target is T1, AKR1B1 (aldose reductase). Put plainly: aldose reductase inhibitor screening kit, NADPH consumption at […] nm. The assay is classed as biochemical.

In assay [1], `COc1ccc(C[C@H]2COC(=O)[C@@H]2Cc2ccc3c(c2)OCO3)cc1OC` (racemic) [(±)KU, trans-(±)-kusunokinin] registered a 50% inhibitory concentration (IC50) of 9.72 ± 0.18 µM.
For `COc1ccc(C[C@H]2COC(=O)[C@@H]2Cc2ccc(O[C@@H]3O[C@H](CO)[C@@H](O)[C@H](O)[C@H]3O)c(OC)c2)cc1OC` [(−)AR, trans-(−)-arctiin], the IC50 in assay [2] was 13.7 µM. This lies in the double-digit micromolar range.
